Assay [1] deals with Human umbilical vein endothelial cells (HUVECs), tumour type activated endothelial cells (Tum). Put plainly: Proliferation Assay - Activated Endothelium (MTT). The assay is classed as cell-based. The note with it: for Potency against activated (tumour) versus quiescent (normal) endothelial cells: activated compared with quiescent endothelial cells; for IC50: Homo sapiens, HUVEC, tumour type activated endothelial cells, 48 hrs. As to the method: Proliferation Assay—Activated Endothelium:
(§1) Human umbilical vein endothelial cells (CC-2519, Clonetics) were plated at 2500 cells/well in EGM2 (CC-3162, Clonetics) in a 96 well plate in triplicate. Cells were cultured overnight at 37° C. 5% CO2. Medium was subsequently replaced with fresh medium including the compound or negative control. Cells were cultured for a period of 48 hrs. An MTT assay was performed to measure changes in cell numbers. Briefly, 20 μl of MTT reagent was added to cells containing 100 μl of EGM2 and incubated at 37° C. for 2 hours. Absorbance was measured at 492 nm.

In a further assay the test system is MCF-7. The assay can be described thus: Growth inhibition of cancer cell line, Sulforhodamine B (SRB) or Systmex cell counting (CC) assay. The assay is classed as cell-based. The note with it: Homo sapiens, MCF7, concentration required to inhibit net cell growth by 50%.
In assay [2] the test system is Human umbilical vein endothelial cells (HUVECs), normal quiescent type endothelial cells (Norm). Put plainly: Proliferation Assay - Quiescent Endothelium (MTT). It counts as cell-based. The note with it: HUVEC, 48 hrs. As to the method:
Proliferation Assay—Quiescent Endothelium:
as §1, with “15000” for “2500”, “EBM2 (CC-3156, Clonetics)+0.5% FBS (CC-4101A, Clonetics)+GA-1000 (CC-4381A,” for “EGM2 (CC-3162,”, “EBM2+0.5% FBS” for “EGM2”

The next assay concerns tubulin. Put plainly: Tubulin polymerisation inhibition. The assay is classed as biochemical.
For assay [3], the system named is MDA-MB-231 solid orthotopic tumours. Put plainly: Tumour Growth Inhibition, MDA-MB-231 orthotopic tumours. The note with it: 40 mg/kg i.v., two cycles; monitored up to 72 days; vs vehicle, p<0.001 from day 4 to Day 70. It counts as in vivo, Balb/c nu/nu mice. As to the method:
Tumour Growth Inhibition:
Balb/c nu/nu mice bearing MDA-MB-231 solid orthotopic tumours were treated with compound Example 2 at 40 mg/kg. Animals were i.v. dosed with a total of two cycles of Example 2 treatment. Each cycle was dosing on […] followed by a three week no-dosing period. Tumour growth represented as a ratio to initial tumour volume is shown over a total of 72-days.
Tumour growth as well as animal health were monitored for up to 72 days post-day 1 of treatment. […] Significant differences in tumour growth between Example 2 treated (n=64) and vehicle treated (n=20) animals were observed as early as day 4 (p<0.001; unpaired t-test; Prism® analysis) through to Day 70.

Consider `COc1ccc(/C=C\c2cc(OC)c(OC)c(OC)c2)cc1O` [Combretastatin A4], for which, in assay [1], the “Potency against activated (tumour) versus quiescent (normal) endothelial cells” value is “equally potent against quiescent and activated endothelial cells”.
In general, IC50 refers to the midpoint of a concentration-inhibition curve. A higher IC50 goes with lower potency. Consider `COc1ccc2c(C(=O)c3cc(OC)c(OC)c(OC)c3)coc2c1` [Comparator C], for which the half-inhibitory concentration (IC50) in the assay on MCF-7 was 55 nM; in assay [1] it was 10 to 100 nM; in assay [2] it was 10 to 100 nM.
For `COc1ccc2c(C(=O)c3cc(OC)c(OC)c(OC)c3)c(Br)oc2c1` [Comparator D], the IC50 with MCF-7 is 500 nM; in assay [1] it was 100 to 1000 nM; in assay [2], 100 to 1000 nM.
For the molecule `COc1cc(C(=O)c2c(C)oc3c(O)c(OC)ccc23)cc(OC)c1OC` [Example 1, 2-Methyl-7-hydroxy-3-(3,4,5-trimethoxybenzoyl)-6-methoxybenzofuran], the figures for the IC50 (in the assay with MCF-7; in assay [1]; in assay [2]) were 2 nM, 0.1 to 1 nM and 10 to 100 nM, respectively. The “Potency against activated (tumour) versus quiescent (normal) endothelial cells” value in assay [1] is “high potency towards tumour endothelial cells (activated) over normal endothelial cells (quiescent)”. The Tubulin polymerisation inhibition entry in the assay with tubulin is “potent tubulin polymerisation inhibitor”.
For `COc1cc(C(=O)c2c(C)oc3c(OP(=O)([O-])[O-])c(OC)ccc23)cc(OC)c1OC.[Na+].[Na+]` [Example 2, Disodium 6-methoxy-2-methyl-3-(3,4,5-trimethoxybenzoyl)benzofuran-7-yl Phosphate], in assay [3], the “Tumour growth (ratio to initial tumour volume)” value is given as “clearly show tumour growth inhibition”.

The record behind these values is patent US20180289739A1, “Combination Therapy for Treating Proliferative Diseases” (BIONOMICS LIMITED, priority 2009, published 2018).
